Assays:
[1] = system: β-GlcNAc:β1,4GalNAc-T of breast tumor BC9400; experiment: β-GlcNAc:β1,4GalNAc-T assay, breast tumor extract; type: biochemical, human; settings: other acceptors, 1 mg protein of the tissue extract
Procedure: (§1) Colon tumor tissue (CC9338) and breast tumor tissue (BC9400) were obtained during surgical procedures at Roswell Park Cancer Institute and stored frozen within 1 h at −70° C. The tissues were homogenized at 4° C. with 4 volumes of 0.1M Tris Maleate […] 0.1% NaN3 using kinematica. After adjusting the concentration of Triton X-100 to 2%, these homogenates were mixed in the cold room for 1 h using Speci-Mix (Thermolyne) and then centrifuged at 20,000 g for 1 h at 4° C. The clear fat-free supernatant was stored frozen at −20° C. until use. Aliquots of 10 μL from this extract were used in assays run in duplicates. Glycosyltransferase activity in cell lysate was determined by mixing the lysates with acceptor and radiolabeled donor (monosaccharide) under the reaction conditions detailed below, followed by separation of un-reacted donor from the radioactive product using anionic or hydrophobic chromatography. In all cases, the radioactive content of isolated products was determined by using 3a70 scintillation cocktail (Research Products International, Mount Prospect, Ill.) and a Beckman LS6500 scintillation counter. Controls for each assay contained the reaction mixture with everything except the acceptor. All assays were run in duplicate.
(§2) The acceptors used for measuring the glycosyltransferase and sulfotransferase activities are given in Table I. The following are the conditions for individual enzymatic assays. Reaction temperature in all cases was 37° C. α2,3- and α2,6 sialytransferase (ST) assay reactions proceeded for 2 h in a mixture containing 100 mM sodium cacodylate buffer (pH 6.0), 7.5 mM acceptor, CMP-[9-^3H]NeuAc (typically 0.2 μCi) and 10 μl cell extract in a total volume of 20 μl [Chandrasekaran et al., 1995]. βGlcNAc:β1,4Gal-T and αGalNAc:β1,3Gal-T assay mixtures in duplicate contained 0.1M Hepes-NaOH pH 7.0, 7 mM ATP, 20 mM Mn acetate, 1 mM UDP-Gal, UDP [^14C]Gal (0.05 μCi; 327mCi/mmol; Amersham), 0.5 mM acceptor (unless otherwise stated) and the enzyme in a total volume of 20 μL. It was incubated for 4 h [Chandrasekaran et al., 2001]. βGlcNAc:β1,4GalNAc-T assay mixtures in duplicate contained 0.1M Hepes-NaOH pH 7.0, 7 mM ATP, 20 mM Mn acetate. UDP [^3H] GalNAc (0.20 μCi; 7.8 Ci/mmol: New England Nuclear Corp.) 7.5 mM acceptor (unless otherwise stated) and the enzyme in a total volume of 20 μL and incubated for 4 h [Chandrasekaran et al., 2001].
(§3) Dowex-1-C1 or Sep-Pak C18 cartridges were used to isolate radiolabeled product from the reaction mixture. For GalT, GalNAc-T and FT assays, the incubation mixture was diluted with 1 ml water and passed through a 1 ml Dowex-1-C1 column [Chandrasekaran et al., 1996; Chandrasekaran et al., 2001]. The column was washed twice with 1 ml of water. The breakthrough and the water wash contained the [^14C]-galactosylated or [^14C]-fucosylated products formed with neutral acceptors. 3 ml of 0.1M NaCl was used to obtain [^14C]-fucosylated products from sialylated acceptors after water elution. For sialytransferase assays, the radioactive products from benzylglycosides were separated by hydrophobic chromatography on Sep-Pak C18 cartridge (Waters, Milford, Mass.), and elution of the product was done with 3 ml methanol [Palcic et al., 1988]. For sulfotransferase assays, elution of the [^35S]-sulfated compound from Dowex-1-C1 column was achieved by 3 ml of 0.2M NaCl [Chandrasekaran et al., 2004].

[2] = system: β-GlcNAc:β1,4Gal-T of colon tumor CC9338; experiment: β-GlcNAc:β1,4Gal-T assay, colon tumor extract; type: biochemical, human; settings: other acceptors, 1 mg protein of the tissue extract
Procedure: as §1, §2, §3

[3] = target: T1, FTVI of breast tumor BC9400 (Homo sapiens, UniProt P51993); experiment: FTVI assay, breast tumor extract; type: biochemical; settings: 1 mg protein of the tissue extract
T1 construct: from tissue; host or cells: breast tumor tissue BC9400, Triton X-100 extract
T1 sequence (P51993 whole entry): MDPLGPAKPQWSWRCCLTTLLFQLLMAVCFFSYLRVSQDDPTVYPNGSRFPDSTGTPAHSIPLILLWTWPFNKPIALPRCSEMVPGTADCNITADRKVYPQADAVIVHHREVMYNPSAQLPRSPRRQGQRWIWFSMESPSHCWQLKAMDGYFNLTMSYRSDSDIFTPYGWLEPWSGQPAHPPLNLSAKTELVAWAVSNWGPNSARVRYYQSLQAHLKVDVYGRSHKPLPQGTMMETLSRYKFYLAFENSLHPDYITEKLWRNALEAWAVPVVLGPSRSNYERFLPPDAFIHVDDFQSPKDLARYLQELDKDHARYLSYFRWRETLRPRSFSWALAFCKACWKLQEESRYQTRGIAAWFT
Procedure: as §1, with “duplicate. […]” for “duplicate.”

[4] = system: β-GlcNAc:β1,4Gal-T of breast tumor BC9400; experiment: β-GlcNAc:β1,4Gal-T assay, breast tumor extract; type: biochemical, human; settings: other acceptors, 1 mg protein of the tissue extract
Procedure: as §1, §2, §3

[5] = system: β-GlcNAc:β1,4GalNAc-T of colon tumor CC9338; experiment: β-GlcNAc:β1,4GalNAc-T assay, colon tumor extract; type: biochemical, human; settings: other acceptors, 1 mg protein of the tissue extract
Procedure: as §1, §2, §3

[6] = target: T2, FTVI of colon tumor CC9338 (Homo sapiens, UniProt P51993); experiment: FTVI assay, colon tumor extract; type: biochemical; settings: 1 mg protein of the tissue extract
T2 construct: from tissue; host or cells: colon tumor tissue CC9338, Triton X-100 extract
T2 sequence (P51993 whole entry): as above
Procedure: as §1, with “duplicate. […]” for “duplicate.”

FTVI activity: incorporation of radioactive sugar [3]: 0.3 CPM × 10^−3
FTVI activity: incorporation of radioactive sugar [6]: 139.1 CPM × 10^−3
Compound: CC(=O)N[C@H]1[C@H](OCc2ccccc2)O[C@H](CO)[C@@H](O[C@@H]2O[C@H](CO)[C@@H](O)[C@H](O)[C@H]2NC(C)=O)[C@@H]1O [GlcNAcβ1,4GlcNAcβ-O-Bn]
b) β-GlcNAc:β1,4GalNAc-T activity: incorporation of radioactive sugar [1]: 57.8 CPM × 10^−3
a) β-GlcNAc:β1,4Gal-T activity: incorporation of radioactive sugar [2]: 307.6 CPM × 10^−3
a) β-GlcNAc:β1,4Gal-T activity: incorporation of radioactive sugar [4]: 436.7 CPM × 10^−3
b) β-GlcNAc:β1,4GalNAc-T activity: incorporation of radioactive sugar [5]: 18.9 CPM × 10^−3
